Where a name gives a salt, the structure may show the parent alone.
Legend:
[1] = test system: Isolated Hepatocyte Cholesterol Biosynthesis; test: Test B: Isolated Hepatocyte Cholesterol Biosynthesis Assay; format: cell-based, male Wistar rats; settings: rat hepatocytes, 10 min preincubation, 60 min incubation at 37°, pH 7.35, read-out: IC50, Inhibition of Isolated Hepatocyte Cholesterol Biosynthesis
Method: Intact parenchymal hepatocytes were isolated from male Wistar rats (180-280 g) fed cholestyramine containing or normal diet, using the collagenase perfusion method essentially as described by Seglen, in Methods in Cell Biology (D. Prescott, ed.) Vol. 13, pp. 29-83, Academic Press, New York (1976). Cell preparations were used only when viability (trypan blue exclusion) exceeded 90%. Cholesterol biosynthesis was determined as the incorporation by hepatocytes of ^3 H from [^3 H]-water into total (cellular plus medium) 3β-hydroxy sterols as per Ingebritsen, et al., J. Biol. Chem., 254, 9986-9989 (1979). Hepatocyte sterols and lipids were isolated by a modification of the methods described by Kates, in Techniques in Lipidology, (M. Kates, ed.), pp. 349, 360-363, North Holland Publ. Co., Amsterdam, 1972. To isolate sterols, cells are extracted with methanol:chloroform:water (2:1:0.8), the chloroform phase is separated and extracted with benzene to remove traces of water, then dried under nitrogen. The residue is saponified at 75° C. with 0.30N NaOH in methanol:water (9:1). The alkaline mixture is then extracted three times with petroleum ether to yield the non-saponifiable lipids which include the free as well as initially esterified cholesterol. The extract is dried under nitrogen in the presence of carrier cholesterol (0.1 mg) and 10% benzene, and the residue is dissolved in acetone:ethanol (1:1). Finally, the 3β-hydroxysterols are precipitated with an excess of digitonin, the precipitate is washed in acetone, dried under nitrogen, and dissolved in toluene:methanol (1:1). The ^3 H-labelled sterols are quantified by liquid scintillation and corrected for counting efficiency. In some tests ^14 C-cholesterol was added to initial extractions as an index of recovery, which averaged 80±3%. […]

[2] = target: T1, rat liver HMG-CoA reductase (Rattus norvegicus, UniProt P51639); test: Test A: In Vitro Inhibition of Microsomal HMG-CoA Reductase; format: biochemical; settings: rat liver microsomes; 0.33 mM d,1-[3-14C]-HMG-CoA, 3.0 mM NADPH, pH 7.2
T1 construct: from tissue; host or cells: rat liver microsomes
T1 sequence (P51639 1-887): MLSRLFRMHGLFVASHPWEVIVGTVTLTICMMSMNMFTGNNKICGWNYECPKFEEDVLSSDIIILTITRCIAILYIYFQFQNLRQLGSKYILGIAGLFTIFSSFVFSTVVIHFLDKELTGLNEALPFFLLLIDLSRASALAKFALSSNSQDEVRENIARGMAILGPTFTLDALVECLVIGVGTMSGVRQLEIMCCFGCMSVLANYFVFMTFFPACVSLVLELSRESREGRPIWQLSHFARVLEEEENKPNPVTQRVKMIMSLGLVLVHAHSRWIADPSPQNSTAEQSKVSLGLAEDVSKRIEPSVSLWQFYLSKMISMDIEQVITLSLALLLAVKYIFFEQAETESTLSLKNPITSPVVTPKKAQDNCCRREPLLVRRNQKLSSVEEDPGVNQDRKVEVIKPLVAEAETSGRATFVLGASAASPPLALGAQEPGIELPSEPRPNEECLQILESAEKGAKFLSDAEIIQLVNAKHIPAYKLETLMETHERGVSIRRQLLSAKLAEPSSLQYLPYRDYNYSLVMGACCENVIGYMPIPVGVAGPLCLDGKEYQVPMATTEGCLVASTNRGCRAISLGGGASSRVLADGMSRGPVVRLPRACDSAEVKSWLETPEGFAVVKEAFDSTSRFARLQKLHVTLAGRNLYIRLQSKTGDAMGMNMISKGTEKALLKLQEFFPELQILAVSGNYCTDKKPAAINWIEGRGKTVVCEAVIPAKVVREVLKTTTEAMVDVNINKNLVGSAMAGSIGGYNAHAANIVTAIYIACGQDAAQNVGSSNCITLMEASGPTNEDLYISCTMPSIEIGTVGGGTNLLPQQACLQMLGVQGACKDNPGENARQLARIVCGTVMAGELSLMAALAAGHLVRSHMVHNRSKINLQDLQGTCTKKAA
Method: The intact, fully activated microsomal form of rat liver HMG-CoA reductase (subunit MW ca 100,000 daltons) was prepared as described by Parker, et al., Biochem. Biophys. Res. Commun., 125, 629-635 (1984), and used as the source of enzyme for assays. HMG-CoA reductase activity was determined essentially by the method of Shapiro, et al., Biochem. Biophys. Acta., 370, 369-377 (1974), with modifications as described by Ingebritsen and Gibson, Meth. Enzymol. 71, 486-497 (1981) with the exception that the internal standard ^3 H-mevalonolactone is added after termination of the assay. […]
To measure reductase inhibition, test compounds dissolved in water or dimethylsulfoxide and diluted in buffer A (50 mM imidazole-HCl, 250 mM NaCl, 1 mM EDTA, 1 mM EGTA, 5 mM DTT, 20 μM leupeptin, pH=7.2) were incubated with aliquots of microsomes (80-160 μg protein in buffer A) followed by addition of d,1-[3-^14 C]-HMG-CoA (0.33 mM, 2.0 dpm/picomole) and NADPH (3.0 mM). The 50 percent inhibitory concentration (IC50) for each compound in Table 1 was calculated from the linear regression line of the percent decrease (from control) in enzyme activity vs. log concentration of inhibitor, determined using at least 4 dilutions of each test compound assayed in duplicate.

| Compound | IC50 [1] | IC50 [2] |
| --- | --- | --- |
| Cc1nnnn1C(/C=C/C(O)CC(O)CC(=O)O)=C(c1ccc(F)cc1)c1ccc(F)cc1 (centres unmarked) [Example 20] | 100 nM | 750 nM |
| O=C(O)CC(O)CC(O)/C=C/C(=C(c1ccc(F)cc1)c1ccc(F)cc1)n1cnnn1 (centres unmarked) [Example 28, 9,9-Bis(4-fluorophenyl)-3,5-dihydroxy-8-(1H-tetrazol-1-yl)-6,8-nonadienoic acid, sodium salt] | 20 nM | 120 nM |
| CC[C@H](C)C(=O)O[C@H]1C[C@@H](C)C=C2C=C[C@H](C)[C@H](CC[C@@H]3C[C@@H](O)CC(=O)O3)[C@H]21 [Mevinolin (Lovastatin), Mevinolin, reference compound] | 46 ± 26 nM | – |

Source: patent publication US4870187A, “Antihypercholesterolemic tetrazol-1-yl compounds” (Bristol-Myers Company, priority 1988, dated 1989)
